From patent US20250129103A1, “METHODS FOR TREATMENT OF CANCER” (Frontier Medicines Corporation, priority 2022, published 2025)
pIC50: −log10 of the molar value. ≈ marks a conversion by molar mass, not a printed value.

Columns and labels:
[1] = biological target: KRAS G12C (GMPPNP-loaded) and cRAF (Ras-binding domain) interaction (Homo sapiens (Human), UniProt P01116, C118S/C51S/C80L/G12C); experiment: Inhibition of KRAS G12C and cRAF binding (AlphaScreen); settings: KRAS G12C loaded with GMPPNP, cRaf RBD, 2 hours preincubation; read-out: Raf-1 RBD K-Ras IC50
Sequence of KRAS G12C (GMPPNP-loaded) and cRAF (Ras-binding domain) interaction (P01116 other isoform, or with tags, fused parts or gaps G12C/C51S/C80L/C118S): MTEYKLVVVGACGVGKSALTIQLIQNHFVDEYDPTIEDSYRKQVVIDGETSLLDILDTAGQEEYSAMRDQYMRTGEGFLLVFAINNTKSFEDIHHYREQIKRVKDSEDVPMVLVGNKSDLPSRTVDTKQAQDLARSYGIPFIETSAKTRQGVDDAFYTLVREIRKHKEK
In short: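 GMPPNP-loaded KRAS G12C in 25 mM Hepes pH 7.4, 150 mM NaCl, 5 mM MgCl2, 0.01% Triton X-100, 10 μM GMPPNP, 2% DMSO, preincubated with compound 2 h at room temperature. cRAF RBD plus AlphaScreen beads then added for 60-90 min; signal read at 570 nm.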

[2] = Determination of kinetic solubility (pH 7.4); assay type: physicochemical; settings: phosphate buffer, pH 7.4, aqueous buffer, kinetic from dmso stock, 50 mM phosphate buffer pH 7.4, read-out: Ksol, pH 7.4
In short: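 Sample mixed with 50 mM phosphate buffer, pH 7.4, vortexed, then shaken 2 h at room temperature and centrifuged. Filtrate analysed by HPLC-UV and LC-MS/MS, with solubility read from peak areas against a standard calibration curve.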

[3] = Determination of logD (1-octanol / phosphate buffer pH 7.4); assay type: physicochemical; settings: 1-octanol/phosphate buffer, pH 7.4, pH 7.4, 1-octanol/phosphate buffer; read-out: Log D, pH 7.4
In short: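 Shake-flask partition between 1-octanol and 100 mM phosphate buffer pH 7.4, each phase presaturated with the other overnight. Tubes shaken 1 h at 800 rpm, room temperature, then centrifuged. Both phases quantified by LCMS and logD calculated from the ratio.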

`N#CC[C@H]1CN(c2nc(OCC34CCCN3CCC4)nc3c2CCN(c2cccc4cccc(Cl)c24)C3)CCN1C(=O)/C=C/CN1[C@@H]2CC[C@H]1COC2` [Compound 168] showed a pIC50 [1] greater than 8.00, a solubility kinetic at 2 h [2] of 0.104 mg/mL (≈ 142 µM) and a logD [3] of 2.59.

In the case of `N#CC[C@H]1CN(c2nc(OC[C@@]34CCCN3C[C@H](F)C4)nc3c(F)c(-c4cccc5cccc(F)c45)ncc23)CCN1C(=O)/C=C/CN1CC2CC(C1)O2` [Compound 237], the pIC50 [1] was greater than 8.00, the solubility kinetic at 2 h [2] was 0.067 mg/mL (≈ 90.7 µM) and the logD [3] was 2.87.

In the case of `C[C@@H]1CN(C/C=C/C(=O)N2CCN(c3nc(OC[C@@]45CCCN4C[C@H](F)C5)nc4c(F)c(-c5cccc6ccc(F)c(F)c56)ncc34)C[C@@H]2CC#N)C[C@H](C)O1` [Compound 239], the pIC50 [1] was 7.00 to 8.00, the solubility kinetic at 2 h [2] was 0.0926 mg/mL (≈ 120 µM) and the logD [3] was 2.53.

`C[C@H]1CN(C/C=C/C(=O)N2CCN(c3nc(OC[C@@]45CCCN4C[C@H](F)C5)nc4c(F)c(-c5cccc6cccc(F)c56)ncc34)C[C@@H]2CC#N)C[C@H](C)O1` [Compound 235] gave a pIC50 [1] of 7.00 to 8.00, a solubility kinetic at 2 h [2] of 0.0725 mg/mL (≈ 96.1 µM) and a logD [3] of 3.75.

In the case of `N#CC[C@H]1CN(c2nc(OC[C@@]34CCCN3C[C@H](F)C4)nc3c(F)c(-c4cccc5cccc(Cl)c45)ncc23)CCN1C(=O)/C=C/CN1CCS(=O)(=O)CC1` [Compound 207], the pIC50 [1] was 6.30 to 7.00, the solubility kinetic at 2 h [2] was 0.0299 mg/mL (≈ 37.8 µM) and the logD [3] was 2.4.

Work on `Cc1nsc(/C=C/C(=O)N2CCN(c3nc(OC[C@@]45CCCN4C[C@H](F)C5)nc4c(F)c(-c5nc(N)cc(C)c5C(F)(F)F)ncc34)C[C@@H]2CC#N)n1` [Compound 142] yielded a pIC50 [1] greater than 8.00, a solubility kinetic at 2 h [2] of 0.106 mg/mL (≈ 140 µM) and a logD [3] of 2.55.

`N#CC[C@H]1CN(c2nc(OCC34CCCN3CCC4)nc3c2CCN(c2cccc4cccc(Cl)c24)C3)CCN1C(=O)/C=C/CN1CC2C(C1)C2(F)F` (stereo partly drawn) [Compound 193] gave a pIC50 [1] greater than 8.00, a solubility kinetic at 2 h [2] of 0.0973 mg/mL (≈ 131 µM) and a logD [3] of 3.13.

In the case of `N#CC[C@H]1CN(c2nc(OC[C@@]34CCCN3C[C@H](F)C4)nc3c(F)c(-c4cccc5ccc(F)c(F)c45)ncc23)CCN1C(=O)/C=C/CN1C[C@@H]2C[C@H]1CO2` [Compound 225], the pIC50 [1] was greater than 8.00, the solubility kinetic at 2 h [2] was 0.135 mg/mL (≈ 178 µM) and the logD [3] was 1.87.

For `N#CC[C@H]1CN(c2nc(OC[C@@]34CCCN3C[C@H](F)C4)nc3c(F)c(-c4cccc(Cl)c4C(F)(F)F)ncc23)CCN1C(=O)/C=C/CN1CC[C@H](F)C1` [Compound 310], the pIC50 [1] was 7.00 to 8.00, the solubility kinetic at 2 h [2] was 0.123 mg/mL (≈ 161 µM) and the logD [3] was 3.13.

For `N#CC[C@H]1CN(c2nc(OCC34CCCN3CCC4)nc3c2CCN(c2cccc4cccc(Cl)c24)C3)CCN1C(=O)/C=C/c1ncccn1` [Compound 35], the pIC50 [1] was 6.30 to 7.00, the solubility kinetic at 2 h [2] was 0.111 mg/mL (≈ 161 µM) and the logD [3] was 2.77.

Work on `N#CC[C@H]1CN(c2nc(OC[C@@]34CCCN3C[C@H](F)C4)nc3c(F)c(-c4cccc(Cl)c4C(F)F)ncc23)CCN1C(=O)/C=C/CN1[C@@H]2CC[C@H]1COC2` [Compound 275] yielded a pIC50 [1] greater than 8.00, a solubility kinetic at 2 h [2] of 0.106 mg/mL (≈ 137 µM) and a logD [3] of 2.73.

`N#CC[C@H]1CN(c2nc(OC[C@@]34CCCN3C[C@H](F)C4)nc3c(F)c(-c4cccc5cccc(Cl)c45)ncc23)CCN1C(=O)/C=C/CN1CC2CCC1CO2` (stereo partly drawn) [Compound 108, 2-((2S)-1-((E)-4-(2-oxa-5-azabicyclo[2.2.2]octan-5-yl)but-2-enoyl)-4-(7-(8-chloronaphthalen-1-yl)-8-fluoro-2-(((2R,7aS)-2-fluorohexahydro-1H-pyrrolizin-7a-yl)methoxy)pyrido[4,3-d]pyrimidin-4-yl)piperazin-2-yl)acetonitrile] gave a pIC50 [1] greater than 8.00, a solubility kinetic at 2 h [2] of 0.088 mg/mL (≈ 114 µM) and a logD [3] of 3.

In the case of `N#CC[C@H]1CN(c2nc(OC[C@@]34CCCN3C[C@H](F)C4)nc3c(F)c(-c4cccc(Cl)c4C4CC4)ncc23)CCN1C(=O)/C=C/CN1C[C@H]2C[C@@H]1CO2` [Compound 276], the pIC50 [1] was greater than 8.00, the solubility kinetic at 2 h [2] was 0.108 mg/mL (≈ 145 µM) and the logD [3] was 3.

Work on `N#CC[C@H]1CN(c2nc(OC[C@@]34CCCN3C[C@H](F)C4)nc3c(F)c(-c4cccc5ccc(F)c(F)c45)ncc23)CCN1C(=O)/C=C/CN1CC[C@@H]2COC[C@H]21` [Compound 299] yielded a pIC50 [1] greater than 8.00, a solubility kinetic at 2 h [2] of 0.118 mg/mL (≈ 153 µM) and a logD [3] of 2.95.
